Experimental findings from patent US9809574B2, “Isoindoline or isoquinoline compounds, a process for their preparation and pharmaceutical compositions containing them” (LES LABORATOIRES SERVIER, priority 2013, dated 2017) are described below.

One experiment has as its target Bcl-2 protein (histag-Bcl-2, UniProtKB P10415) (Homo sapiens (Human), UniProt P10415). Briefly: Inhibition of Bcl-2 by the fluorescence polarisation technique. The class given is binding. Particulars: fluorescence polarisation test; incubation for 2 hours; read-out: IC50 (nM) Bcl-2 FP. An excerpt: For partial inhibitors, the percentage fluorescence polarisation inhibition for a given concentration of the test compound is indicated.

Experiment [1] concerns RS4; 11 leukaemia cell line. Briefly: In vitro cytotoxicity, Microculture Tetrazolium Assay (MTT). The class given is cell-based. Particulars: Homo sapiens, 11 cells exposed for 48 hours. On the procedure: The cytotoxicity studies were carried out on the RS4; 11 leukaemia cell line and on H146 small Cell Lung Carcinoma cell line. The cells are distributed onto microplates and exposed to the test compounds for 48 hours. The cell viability is then quantified by a colorimetric assay, the Microculture Tetrazolium Assay (Cancer Res., 1987, 47, 939-942).

Sequence of Bcl-2 protein (P10415 whole entry): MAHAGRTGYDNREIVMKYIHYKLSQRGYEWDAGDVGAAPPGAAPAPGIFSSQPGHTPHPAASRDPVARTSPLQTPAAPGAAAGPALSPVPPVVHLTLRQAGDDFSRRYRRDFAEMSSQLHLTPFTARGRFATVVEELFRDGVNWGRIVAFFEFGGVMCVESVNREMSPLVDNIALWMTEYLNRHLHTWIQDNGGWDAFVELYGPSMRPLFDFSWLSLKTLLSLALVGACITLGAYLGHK

Broadly, the IC50 is the point on the concentration scale where inhibition reaches its midpoint. Turning to `Cc1c(C(=O)N(C)c2ccccc2)cc(-c2cc3c(cc2C(=O)N2Cc4ccccc4C[C@H]2CN2CCOCC2)CN(C(=O)Oc2ccc4cc[nH]c4c2)CC3)n1C` [Example 629, 1H-Indol-6-yl 6-{1,5-dimethyl-4-[methyl(phenyl)carbamoyl]-1H-pyrrol-2-yl}-7-[(3S)-3-(morpholin-4-ylmethyl)-1,2,3,4-tetrahydroisoquinoline-2-carbonyl]-1,2,3,4-tetrahydroisoquinoline-2-carboxylate], the concentration for half-maximal inhibition (IC50) amounted to 7.2 nM on Bcl-2 protein and 9 nM in experiment [1].

Regarding `Cc1c(C(=O)N(C)c2ccccc2)cc(-c2cc3c(cc2C(=O)N2Cc4ccccc4C[C@H]2CN2CCOCC2)CN(C(=O)Oc2ccc4[nH]ccc4c2)CC3)n1C` [Example 631, 1H-Indol-5-yl 6-{1,5-dimethyl-4-[methyl(phenyl)carbamoyl]-1H-pyrrol-2-yl}-7-[(3S)-3-(morpholin-4-ylmethyl)-1,2,3,4-tetrahydroisoquinoline-2-carbonyl]-1,2,3,4-tetrahydroisoquinoline-2-carboxylate], the half-maximal inhibitory concentration (IC50) worked out at 5.2 nM on Bcl-2 protein and 8.2 nM in experiment [1].

Take `Cc1c(C(=O)N(C)c2ccccc2)cc(-c2cc3c(cc2C(=O)N2Cc4ccccc4C[C@H]2CN2CCOCC2)CN(C(=O)Oc2cnc4[nH]ccc4c2)CC3)n1C` [Example 633, 1H-Pyrrolo[2,3-b]pyridin-5-yl 6-{1,5-dimethyl-4-[methyl(phenyl)carbamoyl]-1H-pyrrol-2-yl}-7-[(3S)-3-(morpholin-4-ylmethyl)-1,2,3,4-tetrahydroisoquinoline-2-carbonyl]-1,2,3,4-tetrahydroisoquinoline-2-carboxylate]: the IC50 on Bcl-2 protein was determined as 6.1 nM; in experiment [1] it was 22 nM.

As to `Cc1c(C(=O)N(C)c2ccccc2)cc(-c2cc3c(cc2C(=O)N2Cc4ccccc4C[C@H]2CN2CCOCC2)CN(C(=O)Oc2cnc4c(ccn4C)c2)CC3)n1C` [Example 634, 1-Methyl-1H-pyrrolo[2,3-b]pyridin-5-yl 6-{1,5-dimethyl-4-[methyl(phenyl)carbamoyl]-1H-pyrrol-2-yl}-7-[(3S)-3-(morpholin-4-ylmethyl)-1,2,3,4-tetrahydroisoquinoline-2-carbonyl]-1,2,3,4-tetrahydroisoquinoline-2-carboxylate], the IC50 is 6.9 nM on Bcl-2 protein and 21 nM in experiment [1].

On to `Cc1c(C(=O)N(C)c2ccccc2)cc(-c2cc3c(cc2C(=O)N2Cc4ccccc4C[C@H]2C)CN(C(=O)Oc2cnc4[nH]ccc4c2)CC3)n1C` [Example 636, 1H-Pyrrolo[2,3-b]pyridin-5-yl 6-{1,5-dimethyl-4-[methyl(phenyl)carbamoyl]-1H-pyrrol-2-yl}-7-[(3R)-3-methyl-1,2,3,4-tetrahydroisoquinoline-2-carbonyl]-1,2,3,4-tetrahydroisoquinoline-2-carboxylate], for which the IC50 worked out at 11 nM on Bcl-2 protein and 34 nM in experiment [1].

As to `Cc1c(C(=O)N(C)c2ccc(O)cc2)cc(-c2cc3c(cc2C(=O)N2Cc4ccccc4C[C@H]2CN2CCOCC2)CN(C(=O)Oc2cccc(C(=O)O)c2)CC3)n1C` [Example 709, 3-(6-{4-[(4-Hydroxyphenyl)(methyl)carbamoyl]-1,5-dimethyl-1H-pyrrol-2-yl}-7-[(3S)-3-(morpholin-4-ylmethyl)-1,2,3,4-tetrahydroisoquinoline-2-carbonyl]-1,2,3,4-tetrahydroisoquinoline-2-carbonyloxy)benzoic acid], the concentration for half-maximal inhibition (IC50) is 4.8 nM at Bcl-2 protein and more than 150 nM in experiment [1].

As to `Cc1c(C(=O)N(C)c2ccc(O)cc2)cc(-c2cc3c(cc2C(=O)N2Cc4ccccc4C[C@H]2C)CN(C(=O)Oc2cccc(C(=O)O)c2)CC3)n1C` [Example 715, 3-(6-{4-[(4-Hydroxyphenyl)(methyl)carbamoyl]-1,5-dimethyl-1H-pyrrol-2-yl}-7-[(3R)-3-methyl-1,2,3,4-tetrahydroisoquinoline-2-carbonyl]-1,2,3,4-tetrahydroisoquinoline-2-carbonyloxy)benzoic acid], the IC50 on Bcl-2 protein was 2.2 nM; in experiment [1], more than 150 nM.

As to `Cc1c(C(=O)N(C)c2ccc(O)cc2)cc(-c2cc3c(cc2C(=O)N2Cc4ccccc4C[C@H]2CN2CCOCC2)CN(C(=O)Oc2ccc(C(=O)O)cc2)CC3)n1C` [Example 721, 4-(6-{4-[(4-Hydroxyphenyl)(methyl)carbamoyl]-1,5-dimethyl-1H-pyrrol-2-yl}-7-[(3S)-3-(morpholin-4-ylmethyl)-1,2,3,4-tetrahydroisoquinoline-2-carbonyl]-1,2,3,4-tetrahydroisoquinoline-2-carbonyloxy)benzoic acid], the IC50 is 4.9 nM at Bcl-2 protein and more than 150 nM in experiment [1].

For the compound `Cc1c(C(=O)N(C)c2ccc(O)cc2)cc(-c2cc3c(cc2C(=O)N2Cc4ccccc4C[C@H]2CN2CCN(C)CC2)CN(C(=O)Oc2cccc(C(=O)O)c2)CC3)n1C` [Example 733, 3-(6-{4-[(4-Hydroxyphenyl)(methyl)carbamoyl]-1,5-dimethyl-1H-pyrrol-2-yl}-7-[(3S)-3-[(4-methylpiperazin-1-yl)methyl]-1,2,3,4-tetrahydroisoquinoline-2-carbonyl]-1,2,3,4-tetrahydroisoquinoline-2-carbonyloxy)benzoic acid], the IC50 was 1.5 nM at Bcl-2 protein and more than 150 nM in experiment [1].

On to `Cc1c(C(=O)N(C)c2ccccc2)cc(-c2cc3c(cc2C(=O)N2Cc4ccccc4C[C@H]2CN2CCN(C)CC2)CN(C(=O)Oc2cccc(C(=O)O)c2)CC3)n1C` [Example 735, 3-(6-{1,5-Dimethyl-4-[methyl(phenyl)carbamoyl]-1H-pyrrol-2-yl}-7-[(3S)-3-[(4-methylpiperazin-1-yl)methyl]-1,2,3,4-tetrahydroisoquinoline-2-carbonyl]-1,2,3,4-tetrahydroisoquinoline-2-carbonyloxy)benzoic acid], for which the IC50 at Bcl-2 protein is 12 nM; in experiment [1], more than 150 nM.

Take `Cc1c(C(=O)N(C)c2ccc(O)cc2)cc(-c2cc3c(cc2C(=O)N2Cc4ccccc4C[C@H]2C)CN(C(=O)Oc2ccccc2CCC(=O)N(C)C)CC3)n1C` [Example 775, 2-[2-(Dimethylcarbamoyl)ethyl]phenyl 6-{4-[(4-hydroxyphenyl)(methyl)carbamoyl]-1,5-dimethyl-1H-pyrrol-2-yl}-7-[(3R)-3-methyl-1,2,3,4-tetrahydroisoquinoline-2-carbonyl]-1,2,3,4-tetrahydroisoquinoline-2-carboxylate]: the results for the IC50 (on Bcl-2 protein; in experiment [1]) were 2.4 nM and 6.3 nM, respectively.

Take `Cc1c(C(=O)N(C)c2ccc(O)cc2)cc(-c2cc3c(cc2C(=O)N2Cc4ccccc4C[C@H]2C)CN(C(=O)Oc2cccc(CCC(=O)N(C)C)c2)CC3)n1C` [Example 776, 3-[2-(Dimethylcarbamoyl)ethyl]phenyl 6-{4-[(4-hydroxyphenyl)(methyl)carbamoyl]-1,5-dimethyl-1H-pyrrol-2-yl}-7-[(3R)-3-methyl-1,2,3,4-tetrahydroisoquinoline-2-carbonyl]-1,2,3,4-tetrahydroisoquinoline-2-carboxylate]: the IC50 at Bcl-2 protein is 2.2 nM; in experiment [1] it was 1.1 nM.

`Cc1c(C(=O)N(C)c2ccc(O)cc2)cc(-c2cc3c(cc2C(=O)N2Cc4ccccc4C[C@H]2CN(C)C)CN(C(=O)Cc2ccccc2)CC3)n1C` [Example 777, 5-{7-[(3S)-3-[(Dimethylamino)methyl]-1,2,3,4-tetrahydroisoquinoline-2-carbonyl]-2-(2-phenylacetyl)-1,2,3,4-tetrahydroisoquinolin-6-yl}-N-(4-hydroxyphenyl)-N,1,2-trimethyl-1H-pyrrole-3-carboxamide]: the IC50 on Bcl-2 protein was 4.1 nM; in experiment [1], 30 nM.

On to `Cc1c(C(=O)N(C)c2ccc(O)cc2)cc(-c2cc3c(cc2C(=O)N2Cc4ccccc4C[C@H]2CN2CCN(C)CC2)CN(C(=O)Cc2ccccc2)CC3)n1C` [Example 778, N-(4-Hydroxyphenyl)-N,1,2-trimethyl-5-{7-[(3S)-3-[(4-methylpiperazin-1-yl)methyl]-1,2,3,4-tetrahydroisoquinoline-2-carbonyl]-2-(2-phenylacetyl)-1,2,3,4-tetrahydroisoquinolin-6-yl}-1H-pyrrole-3-carboxamide], for which the half-maximal inhibitory concentration (IC50) at Bcl-2 protein is 3.1 nM; in experiment [1], 52 nM.

For the compound `Cc1c(C(=O)N(C)c2ccc(O)cc2)cc(-c2cc3c(cc2C(=O)N2Cc4ccccc4C[C@H]2CCN2CCOCC2)CN(C(=O)Cc2ccccc2)CC3)n1C` [Example 779, N-(4-Hydroxyphenyl)-N,1,2-trimethyl-5-{7-[(3S)-3-[2-(morpholin-4-yl)ethyl]-1,2,3,4-tetrahydroisoquinoline-2-carbonyl]-2-(2-phenylacetyl)-1,2,3,4-tetrahydroisoquinolin-6-yl}-1H-pyrrole-3-carboxamide], the IC50 on Bcl-2 protein is 2.9 nM; in experiment [1], 24 nM.

On to `CCN(C(=O)c1cc(-c2cc3c(cc2C(=O)N2Cc4ccccc4C[C@H]2CN2CCOCC2)CN(C(=O)Cc2ccccc2)CC3)n(C)c1C)c1ccc(O)cc1` [Example 780, N-Ethyl-N-(4-hydroxyphenyl)-1,2-dimethyl-5-{7-[(3S)-3-(morpholin-4-ylmethyl)-1,2,3,4-tetrahydroisoquinoline-2-carbonyl]-2-(2-phenylacetyl)-1,2,3,4-tetrahydroisoquinolin-6-yl}-1H-pyrrole-3-carboxamide], for which the results for the IC50 (on Bcl-2 protein; in experiment [1]) were 3.5 nM and 17 nM, respectively.

Take `CCCN(C(=O)c1cc(-c2cc3c(cc2C(=O)N2Cc4ccccc4C[C@H]2CN2CCOCC2)CN(C(=O)Cc2ccccc2)CC3)n(C)c1C)c1ccc(O)cc1` [Example 781, N-(4-Hydroxyphenyl)-1,2-dimethyl-5-{7-[(3S)-3-(morpholin-4-ylmethyl)-1,2,3,4-tetrahydroisoquinoline-2-carbonyl]-2-(2-phenylacetyl)-1,2,3,4-tetrahydroisoquinolin-6-yl}-N-propyl-1H-pyrrole-3-carboxamide]: the IC50 on Bcl-2 protein stood at 2.6 nM; in experiment [1] it was 9.7 nM.
